{"source": "patent US5990078A", "about": "“Means of increasing estrogen receptor levels in neural tissue” (The Trustees of Columbia University in the City of New York, priority 1996, dated 1999)", "molecules": {"B1": {"name": "BDNF: brain-derived neurotrophic factor, a neurotrophin (protein, UniProt P23560 19-247, looked up)", "Neurotrophic factor BDNF …": "APMKEANIRGQGGLAYPGVRTHGTLESVNGPKAGSRGLTSLADTFEHVIEELLDEDQKVRPNEENNKDADLYTSRVMLSSQVPLEPPLLFLLEEYKNYLDAANMSMRVRRHSDPARRGELSVCDSISEWVTAADKKTAVDMSGGTVTVLEKVPVSKGQLKQYFYETKCNPMGYTKEGCRGIDKRHWNSQCRTTQSYVRALTMDSKKRIGWRFIRIDTSCVCTLTIKRGR"}, "B2": {"name": "NT-4/5: neurotrophin-4/5 (protein, UniProt P34130 81-210, looked up)", "Neurotrophin-4": "GVSETAPASRRGELAVCDAVSGWVTDRRTAVDLRGREVEVLGEVPAAGGSPLRQYFFETRCKADNAEEGGPGAGGGGCRGVDRRHWVSECKAKQSYVRALTADAQGRVGWRWIRIDTACVCTLLSRTGRA"}}, "key": {"estrogen receptor [1]": {"molecular_target": "T1, estrogen receptor (Homo sapiens, UniProt P03372)", "T1 construct": "Scatchard analysis on sectioned hypothalamic tissue and MCF7 cells using this protocol; endogenous in cells; host or cells: MCF-7 cells", "T1 sequence (P03372 1-595)": "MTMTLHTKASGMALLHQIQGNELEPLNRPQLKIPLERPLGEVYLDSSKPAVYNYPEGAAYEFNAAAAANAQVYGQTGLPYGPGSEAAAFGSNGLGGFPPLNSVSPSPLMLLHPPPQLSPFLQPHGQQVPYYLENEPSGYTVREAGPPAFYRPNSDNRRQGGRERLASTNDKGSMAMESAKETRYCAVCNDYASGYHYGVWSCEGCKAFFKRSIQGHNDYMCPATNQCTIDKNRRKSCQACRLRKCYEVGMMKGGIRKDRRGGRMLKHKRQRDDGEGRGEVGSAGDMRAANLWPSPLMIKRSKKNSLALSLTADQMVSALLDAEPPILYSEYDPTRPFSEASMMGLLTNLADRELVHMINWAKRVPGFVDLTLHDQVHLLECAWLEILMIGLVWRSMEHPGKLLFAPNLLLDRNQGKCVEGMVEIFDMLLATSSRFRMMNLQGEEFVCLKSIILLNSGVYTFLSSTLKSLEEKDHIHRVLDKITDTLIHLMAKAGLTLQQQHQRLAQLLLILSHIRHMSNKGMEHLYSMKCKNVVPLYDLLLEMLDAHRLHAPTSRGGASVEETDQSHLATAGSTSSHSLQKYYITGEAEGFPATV", "assay": "Scatchard analysis of [3H]-moxestrol binding, MCF7 cells", "method": "(§1) Nuclear receptor binding sites were identified using previously published protocols (Sohrabji et al., 1994a,b) and were standardized for this experiment using both MCF-7 cells and hypothalamic tissue. Cortical and basal forebrain cultures were maintained for 8 days in vitro. At the end of this period, cultures were incubated for 2 h at 34° C. with […] [^3 H]-moxestol (R2858; specific activity 80 Ci/mmol) in feed (phenol red free RPMI+10% gelded horse serum). The gelded horse serum had undetectable levels of estrogens, androgens, and progesterone (see tissue culture protocol), so that there were no endogenous steroids to compete with the nuclear binding of moxestrol. Control cultures were exposed to [^3 H]-moxestrol in the presence of an excess (2 mM) of unlabeled diethyl stilbestrol (DES), a synthetic estrogen. The radioligand-containing feed was then removed and the cultures washed and harvested for nuclear pellets by sucrose gradient density centrifugation at 4° C. Radioactivity was eluted from nuclear pellets with 95% ethanol (moxestrol is completely soluble in >50% ethanol) and the radioactivity counted in a liquid scintillation counter. […] Specific binding was determined as the difference between total binding and non-specific binding (in the presence of an unlabeled competing ligand) and the data expressed as femtomoles of specifically bound [^3 H] -moxestrol/mg DNA. […]"}, "estrogen receptor [2]": {"molecular_target": "T2, estrogen receptor (Rattus norvegicus, UniProt P06211)", "T2 sequence (P06211 1-600)": "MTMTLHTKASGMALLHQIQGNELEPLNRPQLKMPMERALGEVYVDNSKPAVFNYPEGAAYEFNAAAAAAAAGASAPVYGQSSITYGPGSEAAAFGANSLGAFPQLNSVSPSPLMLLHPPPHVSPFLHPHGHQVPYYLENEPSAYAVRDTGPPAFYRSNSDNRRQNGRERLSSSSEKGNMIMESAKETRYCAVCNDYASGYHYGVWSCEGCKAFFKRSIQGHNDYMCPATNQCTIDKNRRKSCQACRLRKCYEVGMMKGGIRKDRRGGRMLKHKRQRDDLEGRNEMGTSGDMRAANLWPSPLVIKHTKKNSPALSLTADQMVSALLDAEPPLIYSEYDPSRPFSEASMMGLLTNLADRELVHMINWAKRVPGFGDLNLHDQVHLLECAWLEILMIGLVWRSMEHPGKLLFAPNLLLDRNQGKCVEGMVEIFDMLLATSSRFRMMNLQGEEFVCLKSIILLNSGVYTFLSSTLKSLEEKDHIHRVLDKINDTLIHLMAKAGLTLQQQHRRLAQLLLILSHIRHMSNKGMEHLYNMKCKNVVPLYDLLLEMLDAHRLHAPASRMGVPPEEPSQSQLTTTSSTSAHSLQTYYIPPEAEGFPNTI", "assay": "Scatchard analysis of [3H]-moxestrol binding, P14 hypothalamus", "set-up": "endogenous in cells", "method": "as §1"}, "estrogen receptor [3]": {"test_system": "estrogen receptor", "assay": "Tyrosine phosphorylation of the estrogen receptor, cortical explants", "assay_type": "cell-based", "method": "Estrogen and the neurotrophins have important roles in the developing and adult central nervous system (CNS). […] The hypothesis that estrogen/neurotrophin receptor co-expression leads to reciprocal regulation at the level of signal transduction, through cross-coupling of converging estrogen and neurotrophin signaling pathways whose end-points in the nucleus may be the very same genes was tested. Postnatal day 2 cerebral cortex was maintained as organotypic explants in roller tube culture for 7 days."}, "PC12-E2 cells": {"test_system": "PC12-E2 cells", "assay": "Morphological study of neurite growth in PC12-E2 cells", "assay_type": "cell-based", "text": "It has been previously reported that wild-type, differentiated PC12 pheochromocytoma cells express very low levels of estrogen receptors. Here it is reported that a PC12 cell variant, PC12-E2 (Wu, Bradshaw, J. Cell Physiol. 164:1995), is estrogen responsive and expresses high estrogen receptor level (≈50% of the levels observed in estrogen receptor over-expressing MCF-7 cells). Moreover, although tyrosine phosphorylation of the estrogen receptor appeared to be expressed constitutively, these cells responded to added estrogen. PC12-E2 responsiveness to estrogen was determined morphologically and by measuring estradiol-induced ERK activation. […] Preliminary co-precipitation experiments show an association between src and estrogen receptor, src with MEK (MAP Kinase/ERK-activating Kinase), and MEK with B-raf, MEK, which phosphorylates the ERKs on tyrosine residues, is known to exist as a complex consisting of at least hsp90 and B-raf."}, "p75^NGFR mRNA": {"test_system": "p75^NGFR mRNA", "assay": "Northern blot analysis of p75NGFR mRNA in PC12 cells", "assay_type": "cell-based, rat", "conditions": "PC12 cells, NGF treatment", "method": "PC12 cells were cultured on collagen-coated coverslips or tissue culture dishes in phenol red-free RPMI 1640 (Gibco BRL) nutrient medium supplemented with 10% (heat-inactivated) gelded (steroid-deficient) horse serum (JRH Biological), according to a modification of standard procedures. In these experiments, fetal calf serum, which contains physiologic levels of estrogen, (32 pg/ml) was not used.\nTotal RNA, prepared by a modification of the Chomczynski and Sacchi method, was size-fractionated (10-20 μg/lane) on a 1.2% agarose-18% formaldehyde gel and capillary-transferred to nylon membrane (Hybond-N; Amersham). Filters were prehybridized (4-18 h) and hybridized (36-40 h) at 42° C. in 50% Formamide, 3× SSC, 0.1M Tris, 5× Denhardt's and 10% Dextran Sulfate. Probes were labeled with [α-^32 P]-dCTP by the random priming procedure (Random Priming kit, Boehringer Mannheim). trkA mRNA was identified by hybridization with pDM97, a 450 bp trkA-specific probe corresponding to the extracellular and transmembrane domains of the trkA gene [67; gift of L. F. Parada, NCI-FCRDC]. p75^NGFR was probed by hybridization with p5b, a 2 Kb probe corresponding to the extracellular domain of the p75^NGFR gene. Blots were washed first in 0.2×SSC and 0.5% SDS briefly at room temperature and then for 2 h at 60° C., with frequent changes of wash buffer. Filters were then exposed to film (Kodak X-Omat) between intensifying screens and stored at -70° C. for 1-4 days before developing.\nUsing a standard densitometry package (Jandel Scientific), optical density measurements were obtained from X-ray film. trkA and p75^NGFR transcript densities were normalized to an internal control to account for variation in the amount of RNA loaded.\nTotal RNA was analyzed by Northern blot analyses, using ^32 P-labeled cDNA probes for trkA and p75^NGFR."}, "estrogen receptor [4]": {"molecular_target": "T2, estrogen receptor", "assay": "Nuclear exchange assay: specific nuclear estrogen binding in PC12 cells", "assay_type": "cell-based", "set-up": "endogenous in cells", "conditions": "for Nuclear estrogen binding after 4 days of NGF treatment: 4 days NGF", "method": "In these experiments, fetal calf serum, which contains physiologic levels of estrogen, (32 pg/ml) was not used.\nEstrogen binding was estimated by a modification of the nuclear exchange assay. […] Groups receiving estrogen were deprived of the steroid 24 h prior to the assay. […] Tubes were then centrifuged briefly (5 mins, 14000 g) to recover a pellet and washed (3×) in the same buffer, excluding Triton X. Since the estrogen receptor is a nuclear receptor, in some experiments a sucrose gradient protocol was employed to ensure a clean nuclear pellet. […] This mixture was then carefully layered over a buffer containing 1.8 M sucrose and centrifuged for 90 mins, at 15,000 g at 4° C., and the nuclear pellet recovered from the bottom of the tube. […] Specific binding was determined as the difference between total binding and non-specific binding (in the presence of an unlabeled competing ligand). […] Group differences were evaluated using one way analysis of variance with Student-Newman-Keuls test of planned post-hoc comparisons. Differences were considered significant at the 0.05 level.\nA modification of the nuclear exchange assay was used to determine the presence of estrogen binding sites in nuclear pellets of PC12 cells."}, "estrogen receptor [5]": {"molecular_target": "T2, estrogen receptor", "set-up": "endogenous in cells", "conditions": "NGF-sensitive PC12 cells (Sohrabji et al., 1994a); cited from earlier work"}, "estrogen receptor mRNA": {"test_system": "estrogen receptor mRNA", "assay": "In situ hybridization for estrogen receptor mRNA in PC12 cells", "assay_type": "cell-based, rat", "conditions": "NGF-treated (14 days, >2 weeks)", "text": "Estrogen receptor mRNA was identified using a previously described unique 48-base oligonucleotide sequence, identical to a region within the ligand-binding domain of the rat uterine estrogen receptor [51] and with less than 25% homology with the other members of the steroid receptor superfamily of DNA binding proteins. The probes were 3' end-labeled with digoxigenin-deoxyuridine-triphosphate using terminal deoxynucleotidyl transferase (BRL).\nIn situ hybridization histochemistry for the estrogen receptor was performed according to the procedure described in Miranda and Toran-Allerand [71]. Briefly, paraformaldehyde-fixed cultures were hybridized with digoxigenin-labeled oligonucleotide for 16-18 hours, washed extensively and later incubated with antidigoxigenin antibody conjugated to alkaline phosphatase (Boehringer Mannheim). RNA-oligonucleotide hybrids were visualized with a blue color reaction (nitroblue tetrazolium salt/5-bromo-4-chloro-3-indolyl-phosphate) catalyzed by antibody-conjugated alkaline-phosphatase. Color reaction was terminated for all groups when color appeared fully developed in one condition. Coverslips were dehydrated briefly, cleared in Histoclear (National Diagnostics) and coverslipped in Permount. […]"}, "[6]": {"conditions": "read-out: Dissociation constant (Kd)"}}, "note": "Entries after “also recorded” stand apart in the source; their conditions may differ.", "data": [{"molecule": "C#C[C@]1(O)CC[C@H]2[C@@H]3CCc4cc(O)ccc4[C@H]3[C@@H](OC)C[C@@]21C", "note": "[[^3 H]-moxestrol, 11β-methoxy-[^3 H]-moxestrol]", "values": [{"measurement": "Maximal binding (Bmas)", "setting": "estrogen receptor [1]", "value": "1800-2500 fmol/mg DNA"}, {"measurement": "Kd", "setting": "estrogen receptor [1]; [6]", "value": "0.7 to 0.78", "unit": "nM"}, {"measurement": "Maximal binding (Bmas)", "setting": "estrogen receptor [2]", "value": 310, "unit": "fmol/mg DNA"}, {"measurement": "Kd", "setting": "estrogen receptor [2]; [6]", "value": 0.86, "unit": "nM"}]}, {"molecule": "NGF: nerve growth factor, member of the neurotrophin family of growth factors", "values": [{"measurement": "Tyrosine phosphorylation of the estrogen receptor", "setting": "estrogen receptor [3]", "value": "induced tyrosine phosphorylation"}, {"measurement": "Neurite outgrowth", "setting": "PC12-E2 cells", "value": "extensive and rapid"}, {"measurement": "Time to induction of neurite outgrowth", "setting": "PC12-E2 cells", "value": "≤ 24", "unit": "h"}, {"measurement": "p75NGFR mRNA vs untreated controls", "setting": "p75^NGFR mRNA", "value": "increase"}, {"measurement": "Increase in specific nuclear estrogen binding vs naive (untreated) cells", "setting": "estrogen receptor [4]; NGF for 3 weeks (21 days)", "value": "sixfold"}, {"measurement": "Nuclear estrogen binding after 1 day of NGF exposure", "setting": "estrogen receptor [4]; time course, 1 day NGF", "value": "No increase was observed"}, {"measurement": "Nuclear estrogen binding after 4 days of NGF treatment", "setting": "estrogen receptor [4]; time course", "value": "noticeable elevation; also recorded: increase in estrogen binding is present as early as 4 days"}, {"measurement": "Nuclear estrogen binding after 4 days of NGF treatment", "setting": "estrogen receptor [4]; time course, listed as nerve growth factor", "value": "double"}, {"measurement": "Increase in estrogen binding sites", "setting": "estrogen receptor [5]", "value": "sixfold"}, {"measurement": "Hybridization to estrogen receptor probe", "setting": "estrogen receptor mRNA", "value": "strongly hybridize"}]}, {"molecule": "NT-3: neurotrophin-3", "values": [{"measurement": "Tyrosine phosphorylation of the estrogen receptor", "setting": "estrogen receptor [3]", "value": "not"}]}, {"molecule": "B1", "values": [{"measurement": "Tyrosine phosphorylation of the estrogen receptor", "setting": "estrogen receptor [3]", "value": "induced tyrosine phosphorylation"}]}, {"molecule": "B2", "values": [{"measurement": "Tyrosine phosphorylation of the estrogen receptor", "setting": "estrogen receptor [3]", "value": "induced tyrosine phosphorylation"}]}]}
